# Key:
# LcrF (VirF) = LcrF (VirF) (Yersinia pestis, UniProt P28808); assay: biochemical; format: binding, Y. pseudotuberculosis
# ExsA = biological target: T1, ExsA (Pseudomonas aeruginosa, UniProt P26993); assay: In vitro activity of Mar inhibitors against ExsA: cell-free DNA binding assay; settings: purified ExsA from P. aeruginosa, inhibition of DNA binding in vitro
# T1 construct: made in house
# T1 sequence (P26993 1-278): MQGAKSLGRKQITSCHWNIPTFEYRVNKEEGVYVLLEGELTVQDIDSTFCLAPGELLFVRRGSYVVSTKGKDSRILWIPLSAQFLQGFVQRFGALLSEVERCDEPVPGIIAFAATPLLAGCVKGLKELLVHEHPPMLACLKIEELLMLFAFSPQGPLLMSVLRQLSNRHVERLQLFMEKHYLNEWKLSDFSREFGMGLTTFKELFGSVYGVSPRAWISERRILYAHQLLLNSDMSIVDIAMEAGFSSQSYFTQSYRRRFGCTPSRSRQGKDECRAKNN
# [1] = tested on: Yersinia pseudotuberculosis
# P. aeruginosa = assay: Whole cell assay: cytotoxicity of P. aeruginosa toward J774 cells (CytoTox 96, LDH release); settings: percent cytotoxicity of treated P. aeruginosa toward J774 cells
# Sequence of LcrF (VirF) (P28808 whole entry, looked up): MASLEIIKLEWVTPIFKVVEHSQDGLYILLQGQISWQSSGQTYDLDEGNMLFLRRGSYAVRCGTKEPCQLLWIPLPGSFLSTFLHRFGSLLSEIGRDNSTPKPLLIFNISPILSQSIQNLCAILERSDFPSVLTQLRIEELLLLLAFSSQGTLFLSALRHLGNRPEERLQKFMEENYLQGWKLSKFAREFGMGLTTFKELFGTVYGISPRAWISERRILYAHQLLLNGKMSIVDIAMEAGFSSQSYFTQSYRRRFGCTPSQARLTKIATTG
Structure (SMILES),EC50 (LcrF (VirF)),EC50 (ExsA),Cytotoxicity at 50 μg/mL Yersinia [1],Cytotoxicity at 50 μg/mL Pseudomonas (P. aeruginosa)
CCc1cc(-c2nc3ccc([N+](=O)[O-])cc3n2O)ccc1NC(=O)c1ccc(C(C)=O)cc1 [AA],10.1 to 25 µM,10.1 to 25 µM,* (key: *: percent cytotoxicity above 75% at 50 μg/mL; **: cytotoxicities below 75% at 50 μg/mL),* (percent cytotoxicities above 75% at 50 mg/mL)
O=C(Nc1ccc(-c2nc3ccc([N+](=O)[O-])cc3n2O)nc1)c1ccc(F)cc1 [AF],> 25.1 µM,> 25.1 µM,* (key: *: percent cytotoxicity above 75% at 50 μg/mL; **: cytotoxicities below 75% at 50 μg/mL),–
O=C(Nc1ccc(-c2nc3ccc([N+](=O)[O-])cc3n2OCP(=O)(O)O)cc1)c1ccc(F)cc1 [AK],–,–,* (key: *: percent cytotoxicity above 75% at 50 μg/mL; **: cytotoxicities below 75% at 50 μg/mL),–
CCOP(=O)(COn1c(-c2ccc(NC(=O)c3ccc(F)cc3)cc2)nc2ccc([N+](=O)[O-])cc21)OCC [AU],–,–,* (key: *: percent cytotoxicity above 75% at 50 μg/mL; **: cytotoxicities below 75% at 50 μg/mL),–
O=C(Nc1ccc(-c2nc3ccncc3n2O)cc1)c1ccc(F)cc1 [AX],–,–,* (key: *: percent cytotoxicity above 75% at 50 μg/mL; **: cytotoxicities below 75% at 50 μg/mL),–
O=C(/C=C/c1ccc(F)cc1)Nc1ccc(-c2nc3ccncc3n2O)cc1 [AY],–,–,* (key: *: percent cytotoxicity above 75% at 50 μg/mL; **: cytotoxicities below 75% at 50 μg/mL),–
Cc1cc(-c2nc3ccc([N+](=O)[O-])cc3n2O)ccc1NC(=O)/C=C/c1ccc(F)cc1 [BB],10.1 to 25 µM,> 25.1 µM,* (key: *: percent cytotoxicity above 75% at 50 μg/mL; **: cytotoxicities below 75% at 50 μg/mL),–
O=C(Nc1ccc(-c2nc3ccc([N+](=O)[O-])cc3n2O)cc1)c1ccc2c(c1)CCCC2=O [BD],> 25.1 µM,> 25.1 µM,* (key: *: percent cytotoxicity above 75% at 50 μg/mL; **: cytotoxicities below 75% at 50 μg/mL),–
CC(=O)c1ccc(C(=O)Nc2ccc(-c3nc4ccc([N+](=O)[O-])cc4n3O)cc2C)cc1 [BF],–,< 10 µM,* (key: *: percent cytotoxicity above 75% at 50 μg/mL; **: cytotoxicities below 75% at 50 μg/mL),–
CN(C)C(=O)c1ccc(C(=O)Nc2ccc(-c3nc4ccc([N+](=O)[O-])cc4n3O)cc2)cc1 [BP],–,–,* (key: *: percent cytotoxicity above 75% at 50 μg/mL; **: cytotoxicities below 75% at 50 μg/mL),* (percent cytotoxicities above 75% at 50 mg/mL)
CN(C)CCN(C)c1cc2nc(-c3ccc(NC(=O)/C=C/c4ccc(F)cc4)cc3)n(O)c2cc1[N+](=O)[O-] [CE],< 10 µM,< 10 µM,–,** (cytotoxicities below 75% at 50 mg/mL)
CN1CCN(CCOc2cc3nc(-c4ccc(NC(=O)/C=C/c5ccc(F)cc5)cc4)n(O)c3cc2[N+](=O)[O-])CC1 [CF],< 10 µM,< 10 µM,–,* (percent cytotoxicities above 75% at 50 mg/mL)
CN(C)CCOc1cc2nc(-c3ccc(NC(=O)/C=C/c4ccc(F)cc4)cc3)n(O)c2cc1[N+](=O)[O-] [CG],–,> 25.1 µM,–,* (percent cytotoxicities above 75% at 50 mg/mL)
O=C(/C=C/c1ccc(F)cc1)Nc1ccc(-c2nc3ccc(-n4ccnc4)cc3n2O)cc1 [CH],> 25.1 µM,10.1 to 25 µM,–,* (percent cytotoxicities above 75% at 50 mg/mL)
CC(=O)c1ccc(/C=C/C(=O)Nc2ccc(-c3nc4cc(OCCN5CCN(C)CC5)c([N+](=O)[O-])cc4n3O)cc2)cc1 [CI],< 10 µM,< 10 µM,–,** (cytotoxicities below 75% at 50 mg/mL)
CC(=O)c1ccc(/C=C/C(=O)Nc2ccc(-c3nc4cc(OCCN5CCOCC5)c([N+](=O)[O-])cc4n3O)cc2)cc1 [CJ],–,–,–,** (cytotoxicities below 75% at 50 mg/mL)
CC(=O)c1ccc(/C=C/C(=O)Nc2ccc(-c3nc4ccc(C#N)cc4n3O)cc2)cc1 [CK],10.1 to 25 µM,10.1 to 25 µM,–,** (cytotoxicities below 75% at 50 mg/mL)

Structure (SMILES),EC50 (LcrF (VirF)),EC50 (ExsA),Cytotoxicity at 50 μg/mL Yersinia [1],Cytotoxicity at 50 μg/mL Pseudomonas (P. aeruginosa)
N#Cc1ccc2nc(-c3ccc(NC(=O)c4ccc(-n5ccnc5)cc4)cc3)n(O)c2c1 [CO],10.1 to 25 µM,> 25.1 µM,–,** (cytotoxicities below 75% at 50 mg/mL)
"NC(=O)c1ccc2nc(-c3ccc(NC(=O)c4ccc(F)cc4)cc3)n(O)c2c1 [Compound AD, 2-[4-(4-Fluoro-benzoylamino)-phenyl]-3-hydroxy-3H-benzoimidazole-5-carboxylic Acid Amide]",–,–,* (key: *: percent cytotoxicity above 75% at 50 μg/mL; **: cytotoxicities below 75% at 50 μg/mL),–
"O=C(Nc1ccc(-c2nc3ccc([N+](=O)[O-])cc3n2O)c(OCP(=O)(O)O)c1)c1ccc(F)cc1 [Compound AR, [5-(4-Fluoro-benzoylamino)-2-(1-hydroxy-6-nitro-1H-benzoimidazol-2-yl)-phenoxymethyl]-phosphonic Acid]",–,–,* (key: *: percent cytotoxicity above 75% at 50 μg/mL; **: cytotoxicities below 75% at 50 μg/mL),–
"O=C(/C=C/c1ccc(-n2ccnc2)cc1)Nc1ccc(-c2nc3ccc([N+](=O)[O-])cc3n2O)cc1 [Compound BK, (E)-N-[4-(1-Hydroxy-6-nitro-1H-benzoimidazol-2-yl)-phenyl]-3-(4-imidazol-1-yl-phenyl)-acrylamide]",–,< 10 µM,** (key: *: percent cytotoxicity above 75% at 50 μg/mL; **: cytotoxicities below 75% at 50 μg/mL),** (cytotoxicities below 75% at 50 mg/mL)
"O=C(/C=C/c1ccc(F)cc1)Nc1ccc(-c2nc3cc(F)c([N+](=O)[O-])cc3n2O)cc1 [Compound BO, N-[4-(5-Fluoro-1-hydroxy-6-nitro-1H-benzoimidazol-2-yl)-phenyl]-3-(4-fluoro-cinnamyl)-amide]",> 25.1 µM,> 25.1 µM,–,** (cytotoxicities below 75% at 50 mg/mL)
"CC(=O)c1ccc(/C=C/C(=O)Nc2ccc(-c3nc4ccc([N+](=O)[O-])cc4n3O)cc2)cc1 [Compound BQ, (E)-3-(4-Acetyl-phenyl)-N-[4-(1-hydroxy-6-nitro-1H-benzoimidazol-2-yl)-phenyl]-acrylamide]",10.1 to 25 µM,< 10 µM,–,** (cytotoxicities below 75% at 50 mg/mL)
"O=C(/C=C/c1ccc(F)cc1)Nc1ccc(-c2nc3ccc(-n4cccn4)cc3n2O)cc1 [Compound CL, (E)-3-(4-Fluoro-phenyl)-N-[4-(1-hydroxy-6-pyrazol-1-yl-1H-benzoimidazol-2-yl)-phenyl]-acrylamide]",> 25.1 µM,> 25.1 µM,–,* (percent cytotoxicities above 75% at 50 mg/mL)
"CC(=O)c1ccc(C(=O)Nc2ccc(-c3nc4ccc(-n5cccn5)cc4n3O)cc2)cc1 [Compound CM, 4-Acetyl-N-[4-(1-hydroxy-6-pyrazol-1-yl-1H-benzoimidazol-2-yl)-phenyl]-benzamide]",–,–,–,* (percent cytotoxicities above 75% at 50 mg/mL)
"CC(=O)c1ccc(C(=O)Nc2ccc(-c3nc4ccc(-n5ccnc5)cc4n3O)cc2)cc1 [Compound CN, 4-Acetyl-N-[4-(1-hydroxy-6-imidazol-1-yl-1H-benzoimidazol-2-yl)-phenyl]-benzamide]",–,–,–,* (percent cytotoxicities above 75% at 50 mg/mL)
"O=C(O)COn1c(-c2ccc(NC(=O)c3ccc(F)cc3)cc2)nc2ccc([N+](=O)[O-])cc21 [Compound V, {2-[4-(4-Fluoro-benzoylamino)-phenyl]-6-nitro-benzoimidazol-1-yloxy}-acetic Acid]",> 25.1 µM,–,* (key: *: percent cytotoxicity above 75% at 50 μg/mL; **: cytotoxicities below 75% at 50 μg/mL),–
CC(C)c1ccc(/C=C/C(=O)Nc2ccc(-c3nc4ccc([N+](=O)[O-])cc4n3O)cc2)cc1 [H],> 25.1 µM,> 25.1 µM,* (key: *: percent cytotoxicity above 75% at 50 μg/mL; **: cytotoxicities below 75% at 50 μg/mL),–
C/C(=C\c1ccccc1)C(=O)Nc1ccc(-c2nc3ccc([N+](=O)[O-])cc3n2O)cc1 [I],> 25.1 µM,–,* (key: *: percent cytotoxicity above 75% at 50 μg/mL; **: cytotoxicities below 75% at 50 μg/mL),–
O=C(Nc1ccc2nc(-c3ccc([N+](=O)[O-])cc3)n(O)c2c1)c1ccc(F)cc1 [L],–,–,* (key: *: percent cytotoxicity above 75% at 50 μg/mL; **: cytotoxicities below 75% at 50 μg/mL),–
NC(=NO)c1ccc2nc(-c3ccc(NC(=O)c4ccc(F)cc4)cc3)n(O)c2c1 [M],> 25.1 µM,> 25.1 µM,* (key: *: percent cytotoxicity above 75% at 50 μg/mL; **: cytotoxicities below 75% at 50 μg/mL),–
O=C(C/C=C/c1ccccc1)Nc1ccc(-c2nc3ccc([N+](=O)[O-])cc3n2O)cc1 [N],> 25.1 µM,–,* (key: *: percent cytotoxicity above 75% at 50 μg/mL; **: cytotoxicities below 75% at 50 μg/mL),* (percent cytotoxicities above 75% at 50 mg/mL)
CC(=NO)c1ccc2nc(-c3ccc(NC(=O)c4ccc(N(C)C)cc4)cc3)n(O)c2c1 [U],> 25.1 µM,> 25.1 µM,* (key: *: percent cytotoxicity above 75% at 50 μg/mL; **: cytotoxicities below 75% at 50 μg/mL),–
CCc1cc(-c2nc3ccc([N+](=O)[O-])cc3n2O)ccc1NC(=O)c1ccc(F)cc1 [Z],10.1 to 25 µM,> 25.1 µM,* (key: *: percent cytotoxicity above 75% at 50 μg/mL; **: cytotoxicities below 75% at 50 μg/mL),–

# — patent US20090170812A1, “Transcription factor modulating compounds and methods of use thereof” (priority 2006, published 2009)
